# Where two headings read alike, the source gives them in different places.
# How the values were obtained:
# [1] = test system: guanine xpt riboswitch from Streptococcus pyogenes (STPY-xpt); test: Relative binding by displacement of 2-aminopurine from the STPY-xpt aptamer
# Method: Shown in FIG. 4A is the structure of the guanine ligand and the compounds: 4-hydroxy-2,5,6-triaminopyrimidine shown as 2,5,6-triaminopyrimidine-4-one (compound 1.01), 2,4-diamino-6-hydroxypyrimidine shown as 2,6-diaminopyrimidine-4-one (compound 1.13) and 5,6-diamino-uracil (2AU) as well as their predicted hydrogen bonds (arrows). […] The experiment was performed as in for example Mulhbacher and Lafontaine, 2007. […] Briefly, STPY-xpt aptamers were incubated in the presence of the guanine-like ligand 2-aminopurine alone (Neg. control) or in the presence of 1 or 10 μM of the above-listed compounds. The relative binding affinity was obtained from the ability of a ligand to displace the 2-aminopurine from the guanine riboswitch STPY-xpt aptamer.
# E. coli ATCC 35695 = test: Antibiogram with 6-thioguanine; type: cell-based; conditions: 0.5 or 1 mg/mL; E. coli ATCC 35695 (lacks guaA riboswitch)
# [2] = test system: methicillin resistant S. aureus; test: Antibiogram with 6-thioguanine; type: cell-based; conditions: 0.5 or 1 mg/mL
# [3] = test system: S. aureus strain ATCC 29213; test: MIC / growth inhibition, microdilution method; type: cell-based; conditions: for MIC: Staphylococcus aureus, ATCC29213, 24 h; for S. aureus growth inhibition: Yes/No
# C. difficile (Cd6) = test: Bactericidal activity, fold reduction of CFU/mL; type: cell-based; conditions: 600 μg/mL, 4 hours
# Method: (§1) The bactericidal activity of compound 1.01 on various strains of S. aureus (including 3 chronic strains and 3 prototypical strains) was determined. These strains include prototypical S. aureus strains ATCC 29213, Newbould 305, SHY97-3906 as well as S. aureus strains isolated from persistent and chronic bovine mastitis cases (isolates #3, #557, #1290). C. difficile strain Cd6 was also examined. […] The results are summarized in Table 5 below and are expressed as the mean fold reduction of CFU/mL (i.e., the number of CFU/mL of control bacteria divided by the number of CFU/mL of treated bacteria).
# S. aureus ATCC 29213 = test: Bactericidal activity, fold reduction of CFU/mL; type: cell-based; conditions: 600 μg/mL, 4 hours
# Method: as §1
# S. aureus Chronic #1290 = test: Bactericidal activity, fold reduction of CFU/mL; type: cell-based; conditions: 600 μg/mL, 4 hours
# Method: as §1
# S. aureus Chronic #3 = test: Bactericidal activity, fold reduction of CFU/mL; type: cell-based; conditions: 600 μg/mL, 4 hours
# Method: as §1
# S. aureus Chronic #557 = test: Bactericidal activity, fold reduction of CFU/mL; type: cell-based; conditions: 600 μg/mL, 4 hours
# Method: as §1
# S. aureus Newbould 305 = test: Bactericidal activity, fold reduction of CFU/mL; type: cell-based; conditions: 600 μg/mL, 4 hours
# Method: as §1
# S. aureus SHY97-3906 = test: Bactericidal activity, fold reduction of CFU/mL; type: cell-based; conditions: 600 μg/mL, 4 hours
# Method: as §1
# [4] = test system: Bacillus halodurans, S. haemolyticus, S. aureus ATCC29213, SA228a, MRSA COL, Clostridium botulinum, Clostridium difficile Cd6 and 630, S. epidermidis; type: cell-based
# [5] = test system: Bacillus subtilis, Enterococcus feacium, Listeria monocytogenes, Streptococcus dysgalactiae, Streptococus pyogenes, Streptococcus uberis; type: cell-based
# [6] = test system: S. aureus strain ATCC 29213; test: Growth as a function of time (CFU counts); type: cell-based; conditions: compared with ciprofloxacin
# S. aureus genes = test: Transcriptomic microarray analysis of more than 500 genes; type: cell-based; conditions: 30 min
# S. aureus = S. aureus infection of the mouse mammary glands, CFU count; type: in vivo; conditions: intra-mammary injection of 10 times the effective dose; treated 4 h after infection, glands excised 6 h later
# Method: The efficacy of compound 1.01 in treating a S. aureus infection of the mouse mammary glands was examined. Briefly, mouse mammary glands were infected with 100 CFU of S. aureus. Four hours after the inoculation, the glands were treated with vehicle (PBS), 10, 50 or 100 μg/gland of compound 1.01. Six hours later, glands were excised, homogenized and plated on Mueller-Hinton agar. CFU were then counted after 18 hours at 35° C. Each dot represents the CFU of each individual gland (n=6-12) and the median value for each group is indicated by the bar. Statistical differences (P<0.05) between CFU recovered from treated and untreated animals are shown by asterisks (non-parametric Kruskal-Wallis ANOVA with Dunn's post test).
# [7] = Tolerance of intramammary injection in cows; type: in vivo, Holstein cows; conditions: intramammary 100 mg, 250 mg or 500 mg per quarter, 4 cows, 48 h
# [8] = test system: S. aureus strain ATCC 29213; type: cell-based; conditions: sub-inhibitory concentrations, MIC determined every 5 passages up to 30
# E. coli AcrAB—/— = test: microbe, parasite or virus in culture; conditions: Escherichia coli, 24 h, read-out: Minimum inhibitory concentration (MIC)
# E. coli Imp = test: microbe, parasite or virus in culture; conditions: Escherichia coli, 24 h, read-out: Minimum inhibitory concentration (MIC)
# E. coli ATCC35695 = test: MIC, microdilution method in 96-well microplates; conditions: for MIC: Escherichia coli, ATCC35695, 24 h, read-out: Minimum inhibitory concentration (MIC); for Antimicrobial activity on E. coli: E. coli strain ATCC 35695
# guanine riboswitch = test: Guanine riboswitch binding (Table 6); conditions: Yes/No
# [9] = compound at 10 μM, compared with 1 μM guanine
# [10] = S. aureus ATCC 29213, 24 h, 37° C., read-out: MIC
# [11] = S. aureus ATCC 29213, 24 h, 37° C., read-out: S. aureus growth inhibition, MIC
structure (smiles),measurement,setting,value
Nc1[nH]c(=O)[nH]c(=O)c1N,Relative binding,[1]; [9],0.05
Nc1nc2[nH]cnc2c(=S)[nH]1 [6-thioguanine],Relative binding,[1]; [9],0.14
same,Antibiotic activity in antibiogram,E. coli ATCC 35695,non-specific antibiotic activity
same,Antibiotic activity in antibiogram,[2],non-specific antibiotic activity
"Nc1nc(N)c(N)c(O)n1 [Compound 1.01, 4-hydroxy-2,5,6-triaminopyrimidine]",Relative binding,[1]; [9],0.26
same,MIC,[3]; [10],~600 µg/mL
same,"Fold reduction of CFU/mL (control/treated), Mean (log10)",C. difficile (Cd6),5.42 log10
same,"Fold reduction of CFU/mL (control/treated), Mean (log10)",S. aureus ATCC 29213,6.67 log10
same,"Fold reduction of CFU/mL (control/treated), Mean (log10)",S. aureus Chronic #1290,5.42 log10
same,"Fold reduction of CFU/mL (control/treated), Mean (log10)",S. aureus Chronic #3,5.11 log10
same,"Fold reduction of CFU/mL (control/treated), Mean (log10)",S. aureus Chronic #557,4.38 log10
same,"Fold reduction of CFU/mL (control/treated), Mean (log10)",S. aureus Newbould 305,4.86 log10
same,"Fold reduction of CFU/mL (control/treated), Mean (log10)",S. aureus SHY97-3906,6.35 log10
same,Sensitivity of strains in antibiogram,[4],sensitive
same,Sensitivity of strains in antibiogram,[5],insensitive
same,Rapidity of anti-bacterial effect,[6],as rapid as that of the well-known antibiotic ciprofloxacin
same,Genes repressed,S. aureus genes; 600 μg/mL compound alone,> 75%
same,Genes repressed,S. aureus genes; 600 μg/mL compound supplemented with 100 μM GMP,20%
same,Reduction of bacterial counts,S. aureus,> 3 log10
same,"Body temperature, milk appearance, milk somatic cell counts, milk quarter production",[7],"no change in body temperature, milk appearance, milk somatic cell counts or individual milk quarter production"
same,Passages until resistance is selected,[8],at least 30 passages
same,Cytotoxicity upon histological observations of mammary tissues,"100 μg/gland, compared to PBS-treated glands",no apparent cytotoxicity
same,"Signs of toxicity in mice (posture, breathing, piloerection, movement)","mouse, in vivo",without causing any significant signs of toxicity
same,MIC,E. coli AcrAB—/—,> 5000 µg/mL
same,MIC,E. coli Imp,> 5000 µg/mL
same,MIC,E. coli ATCC35695,> 5000 µg/mL
"Nc1cc(=O)[nH]c(N)n1 [Compound 1.13, 2,4-diamino-6-hydroxypyrimidine]",Relative binding,[1]; [9],0.39
same,MIC,[3]; [10],~5000 µg/mL
same,MIC,E. coli AcrAB—/—,> 5000 µg/mL
same,MIC,E. coli Imp,> 5000 µg/mL
same,MIC,E. coli ATCC35695,> 5000 µg/mL
"Nc1nc(S)[nH]c(=O)c1N [Compound 1.16, 4,5-diamino-6-hydroxy-2-mercaptopyrimidine]",MIC,[3]; [11],128 µg/mL
same,S. aureus growth inhibition,[3],Yes
same,Guanine riboswitch binding,guanine riboswitch,Yes
same,Antimicrobial activity on E. coli,E. coli ATCC35695,no antimicrobial activity
"Nc1nc2ocnc2c(=O)[nH]1 [Compound 2.02, 5-Amino-6H-oxazolo[5,4-d]pyrimidin-7-one]","S. aureus growth inhibition, MIC","[3]; S. aureus ATCC 29213, 24 h, 37° C.",1000 µg/mL
same,MIC,[3]; [11],1020 µg/mL
same,S. aureus growth inhibition,[3],Yes
same,Guanine riboswitch binding,guanine riboswitch,able to bind guanine riboswitch and Yes
same,Antimicrobial activity on E. coli,E. coli ATCC35695,no antimicrobial activity
"Nc1nc2nc(Cl)sc2c(=O)[nH]1 [Compound 2.17, 5-amino-2-chloro-2,3-dihydrothiazolo[4,5]pyrimidine-7-(6H)-one]",MIC,[3]; [11],128 µg/mL
same,S. aureus growth inhibition,[3],Yes
same,Guanine riboswitch binding,guanine riboswitch,Yes
same,Antimicrobial activity on E. coli,E. coli ATCC35695,no antimicrobial activity
"CC[C@H]1OC(=O)[C@H](C)[C@@H](O[C@H]2C[C@@](C)(OC)[C@@H](O)[C@H](C)O2)[C@H](C)[C@@H](O[C@@H]2O[C@H](C)C[C@H](N(C)C)[C@H]2O)[C@](C)(O)C[C@@H](C)C(=O)[C@H](C)[C@@H](O)[C@]1(C)O [Erythromicin, reference compound]",MIC,[3]; [10],0.5 µg/mL
same,MIC,E. coli AcrAB—/—,1 to 4 µg/mL
same,MIC,E. coli Imp,0.125 to 1 µg/mL
same,MIC,E. coli ATCC35695,128 µg/mL
"CN[C@H](CC(C)C)C(=O)N[C@H]1C(=O)N[C@@H](CC(N)=O)C(=O)N[C@H]2C(=O)N[C@H]3C(=O)N[C@H](C(=O)N[C@H](C(=O)O)c4cc(O)cc(O)c4-c4cc3ccc4O)[C@H](O)c3ccc(c(Cl)c3)Oc3cc2cc(c3O[C@@H]2O[C@H](CO)[C@@H](O)[C@H](O)[C@H]2O[C@H]2C[C@](C)(N)[C@H](O)[C@H](C)O2)Oc2ccc(cc2Cl)[C@H]1O [Vancomycin, reference compound]",MIC,[3],1 µg/mL
same,MIC,E. coli AcrAB—/—,> 128 µg/mL
same,MIC,E. coli Imp,0.25 µg/mL
same,MIC,E. coli ATCC35695,> 128 µg/mL
Nc1ncnc2[nH]cnc12 [adenine],Relative binding,[1]; [9],0.05
"O=C(O)c1cn(C2CC2)c2cc(N3CCNCC3)c(F)cc2c1=O [ciprofloxacin, reference compound]",MIC,[3]; [10],0.5 µg/mL
Nc1nc2[nH]cnc2c(=O)[nH]1 [guanine],Relative binding,[1]; compound at 1 μM,1
O=c1[nH]cnc2[nH]cnc12 [hypoxanthine],Relative binding,[1]; [9],0.50
O=c1[nH]c(=O)c2nc[nH]c2[nH]1 [xanthine],Relative binding,[1]; [9],0.08

# — patent US9993491B2, “Guanine riboswitch binding compounds and their use as antibiotics” (SOCPRA—SCIENCES ET GENIE S.E.C., priority 2009, dated 2018)
